Source: ChEMBL document CHEMBL1201862, “PubChem BioAssay data set” (2004)
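Following 48 hours of exposure in 96-well plates, responses at five concentrations were used to interpolate endpoints linearly. GI50 marks 50% less growth.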 Calls of active or inactive are those of the source. Rule as the data show it: active = GI50 up to about 1.1 µM and inactive = higher.

Assays:
Assay in all cases: growth of human tumour cells (NCI), 48 h
[1] = system: SNB-75
[2] = system: LOX IMVI
[3] = system: PC-3
[4] = system: HCC 2998
[5] = system: RXF 393
[6] = system: RPMI-8226
[7] = system: SNB-19
[8] = system: SF-539
[9] = system: KM12
[10] = system: SW-620
[11] = system: OVCAR-4
[12] = system: COLO 205
[13] = system: HOP-92
[14] = system: OVCAR-5
[15] = system: NCI-H23
[16] = system: SF-268
[17] = system: HCT-15
[18] = system: SK-MEL-2
[19] = system: MCF7
[20] = system: A549

SMILES: O=c1cc(N2CCOCC2)[nH]c(=O)n1-c1cccc(Cl)c1
- GI50 [1]: > 100 µM (inactive)
- GI50 [2]: > 100 µM (inactive)
- GI50 [3]: > 100 µM (inactive)
- GI50 [4]: > 100 µM (inactive)
- GI50 [5]: > 100 µM (inactive)
- GI50 [6]: > 100 µM (inactive)
- GI50 [7]: > 100 µM (inactive)
- GI50 [8]: > 100 µM (inactive)
- GI50 [9]: > 100 µM (inactive)
- GI50 [10]: > 100 µM (inactive)
- GI50 [11]: > 100 µM (inactive)
- GI50 [12]: > 100 µM (inactive)
- GI50 [13]: > 100 µM (inactive)
- GI50 [14]: > 100 µM (inactive)
- GI50 [15]: > 100 µM (inactive)
- GI50 [16]: > 100 µM (inactive)
- GI50 [17]: > 100 µM
- GI50 [18]: > 100 µM (inactive)
- GI50 [19]: > 100 µM (inactive)

SMILES: Nc1nc(Cl)cc(OCC2(CO)CCCCC2)n1
- GI50 [1]: 66.1 µM (inactive)
- GI50 [2]: > 100 µM (inactive)
- GI50 [3]: > 100 µM (inactive)
- GI50 [20]: 69.7 µM (inactive)
- GI50 [4]: 24.8 µM (inactive)
- GI50 [5]: 63.7 µM (inactive)
- GI50 [6]: 60.5 µM (inactive)
- GI50 [7]: > 100 µM (inactive)
- GI50 [8]: > 100 µM (inactive)
- GI50 [10]: > 100 µM (inactive)
- GI50 [11]: > 100 µM (inactive)
- GI50 [13]: 40.7 µM (inactive)
- GI50 [14]: > 100 µM (inactive)
- GI50 [15]: > 100 µM (inactive)
- GI50 [16]: > 100 µM (inactive)
- GI50 [17]: 24.5 µM
- GI50 [19]: 50.5 µM (inactive)

SMILES: CN(C)c1ccc(C2CC(=O)CC(c3ccc(N(C)C)cc3)C23C(=O)NC(=S)NC3=O)cc1 (configuration not stated)
- GI50 [1]: 14.6 µM (inactive)
- GI50 [2]: > 100 µM (inactive)
- GI50 [3]: > 100 µM (inactive)
- GI50 [20]: > 100 µM (inactive)
- GI50 [4]: 99.3 µM (inactive)
- GI50 [5]: 45.7 µM (inactive)
- GI50 [6]: > 100 µM (inactive)
- GI50 [7]: 71.3 µM (inactive)
- GI50 [8]: > 100 µM (inactive)
- GI50 [9]: > 100 µM (inactive)
- GI50 [10]: > 100 µM (inactive)
- GI50 [11]: > 100 µM (inactive)
- GI50 [12]: > 100 µM (inactive)
- GI50 [13]: > 100 µM (inactive)
- GI50 [14]: > 100 µM (inactive)
- GI50 [15]: 91.2 µM (inactive)
- GI50 [16]: 33.2 µM (inactive)
- GI50 [17]: > 100 µM
- GI50 [18]: 38.8 µM (inactive)
- GI50 [19]: 86.1 µM (inactive)

SMILES: O=CCOCc1cc2c(cc1Br)OCO2
- GI50 [1]: 48.9 µM (inactive)
- GI50 [2]: 19.6 µM (inactive)
- GI50 [3]: 21.4 µM (inactive)
- GI50 [20]: > 100 µM (inactive)
- GI50 [4]: > 100 µM (inactive)
- GI50 [5]: 37 µM (inactive)
- GI50 [6]: 40.6 µM (inactive)
- GI50 [8]: 25.2 µM (inactive)
- GI50 [9]: 33 µM (inactive)
- GI50 [10]: 20.9 µM (inactive)
- GI50 [11]: 20.9 µM (inactive)
- GI50 [12]: > 100 µM (inactive)
- GI50 [13]: 43.9 µM (inactive)
- GI50 [14]: > 100 µM (inactive)
- GI50 [15]: 11.8 µM (inactive)
- GI50 [16]: 18.6 µM (inactive)
- GI50 [17]: 21.9 µM
- GI50 [19]: 20.3 µM (inactive)

SMILES: CC[C@]12C=CCN3CCC4(c5cc([C@@]6(C(=O)OC)CC7CN(CCc8c6[nH]c6ccccc86)CC6CCCCC67)c(OC)cc5N(C)C4[C@](O)(C(=O)OC)C1OC(C)=O)[C@@H]32 (some centres not stated)
- GI50 [1]: < 0.01 µM (active)
- GI50 [2]: < 0.01 µM (active)
- GI50 [3]: < 0.01 µM (active)
- GI50 [20]: < 0.01 µM (active)
- GI50 [4]: < 0.01 µM (active)
- GI50 [5]: < 0.01 µM (active)
- GI50 [6]: < 0.01 µM (active)
- GI50 [7]: < 0.01 µM (active)
- GI50 [8]: < 0.01 µM (active)
- GI50 [9]: < 0.01 µM (active)
- GI50 [10]: < 0.01 µM (active)
- GI50 [11]: 3.38 µM (inactive)
- GI50 [12]: < 0.01 µM (active)
- GI50 [13]: < 0.01 µM (active)
- GI50 [14]: 0.021 µM (active)
- GI50 [15]: < 0.01 µM (active)
- GI50 [16]: < 0.01 µM (active)
- GI50 [17]: 0.111 µM
- GI50 [18]: < 0.01 µM (active)
- GI50 [19]: < 0.01 µM (active)

SMILES: CC(C)(O)C1CC[C@]2(C)CC[C@]3(C)[C@H](CC[C@@H]4[C@@]5(C)CC[C@H](O)C(C)(C)[C@@H]5CC[C@]43C)[C@@H]12 (some centres not stated)
- GI50 [1]: 21.6 µM (inactive)
- GI50 [3]: 30.3 µM (inactive)
- GI50 [20]: 30.1 µM (inactive)
- GI50 [4]: 26.8 µM (inactive)
- GI50 [5]: 33.6 µM (inactive)
- GI50 [6]: 34.3 µM (inactive)
- GI50 [7]: 68.7 µM (inactive)
- GI50 [8]: 23.4 µM (inactive)
- GI50 [9]: 34.4 µM (inactive)
- GI50 [11]: 27.2 µM (inactive)
- GI50 [12]: 29.7 µM (inactive)
- GI50 [13]: 14.5 µM (inactive)
- GI50 [14]: 32.5 µM (inactive)
- GI50 [15]: 35.2 µM (inactive)
- GI50 [16]: 31 µM (inactive)
- GI50 [17]: 35 µM
- GI50 [18]: 20.5 µM (inactive)
- GI50 [19]: 34.6 µM (inactive)

SMILES: O=Cc1ccc(-c2cccs2)s1
- GI50 [1]: 76 µM (inactive)
- GI50 [2]: > 91.8 µM (inactive)
- GI50 [3]: > 100 µM (inactive)
- GI50 [20]: 60 µM (inactive)
- GI50 [4]: 72.8 µM (inactive)
- GI50 [5]: 18.4 µM (inactive)
- GI50 [6]: 57.5 µM (inactive)
- GI50 [7]: > 100 µM (inactive)
- GI50 [8]: > 100 µM (inactive)
- GI50 [9]: > 100 µM (inactive)
- GI50 [10]: 72.4 µM (inactive)
- GI50 [11]: 56.4 µM (inactive)
- GI50 [12]: 42.3 µM (inactive)
- GI50 [13]: 55.6 µM (inactive)
- GI50 [14]: 16.7 µM (inactive)
- GI50 [15]: > 68.1 µM (inactive)
- GI50 [16]: > 96.8 µM (inactive)
- GI50 [17]: > 100 µM
- GI50 [18]: > 100 µM (inactive)
- GI50 [19]: 1.16 µM (inactive)
